Like-named read-outs stand apart in the source and are kept apart here.

Assay [1] deals with FGFR1 (Homo sapiens (Human), UniProt P11362). Kind of assay: FGFR Enzymatic Assay (FGFR1). It is filed as biochemical. The settings on record: enzyme 0.02 nM, ATP 210 μM.
Experimental: (§1) The inhibitor potency of compounds was measured in an enzyme assay that measures peptide phosphorylation using FRET measurements to detect product formation. Inhibitors were serially diluted in DMSO and a volume of 0.5 μL was transferred to the wells of a 384-well plate. For FGFR3, a 10 μL volume of FGFR3 enzyme (Millipore) diluted in assay buffer (50 mM HEPES, 10 mM MgCl2, 1 mM EGTA, 0.01% Tween-20, 5 mM DTT, pH 7.5) was added to the plate and pre-incubated for 5-10 minutes. Appropriate controls (enzyme blank and enzyme with no inhibitor) were included on the plate. […] The plate was incubated at 25° C. for 1 hr. […] The plate was allowed to equilibrate for ˜1 hr before scanning the wells on a PheraStar plate reader.
(§2) GraphPad prism3 was used to analyze the data. The IC50 values were derived by fitting the data to the equation for a sigmoidal dose-response with a variable slope. Y=Bottom+(Top−Bottom)/(1+10^((Log IC50−X)*HillSlope)) where X is the logarithm of concentration and Y is the response.
Assay [2] deals with FGFR2 (Homo sapiens (Human), UniProt P21802). Nature of the assay: FGFR Enzymatic Assay (FGFR2).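 Further: FRET read-out of peptide phosphorylation by the purified kinase, with enzyme-free blank and uninhibited enzyme as controls, potency from a variable-slope sigmoidal dose-response fit.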 It is filed as biochemical. As to conditions: enzyme 0.01 nM, ATP 100 μM; read-out: FGFR2 IC50.
Experimental: as §1, §2
Assay [3] addresses FGFR3 enzyme (Millipore) (Homo sapiens (Human), UniProt P22607). The settings on record: read-out: FGFR3 IC50, ATP 140 μM.
Experimental: as §1, §2

Chain of FGFR3 enzyme (Millipore) (P22607 23-806): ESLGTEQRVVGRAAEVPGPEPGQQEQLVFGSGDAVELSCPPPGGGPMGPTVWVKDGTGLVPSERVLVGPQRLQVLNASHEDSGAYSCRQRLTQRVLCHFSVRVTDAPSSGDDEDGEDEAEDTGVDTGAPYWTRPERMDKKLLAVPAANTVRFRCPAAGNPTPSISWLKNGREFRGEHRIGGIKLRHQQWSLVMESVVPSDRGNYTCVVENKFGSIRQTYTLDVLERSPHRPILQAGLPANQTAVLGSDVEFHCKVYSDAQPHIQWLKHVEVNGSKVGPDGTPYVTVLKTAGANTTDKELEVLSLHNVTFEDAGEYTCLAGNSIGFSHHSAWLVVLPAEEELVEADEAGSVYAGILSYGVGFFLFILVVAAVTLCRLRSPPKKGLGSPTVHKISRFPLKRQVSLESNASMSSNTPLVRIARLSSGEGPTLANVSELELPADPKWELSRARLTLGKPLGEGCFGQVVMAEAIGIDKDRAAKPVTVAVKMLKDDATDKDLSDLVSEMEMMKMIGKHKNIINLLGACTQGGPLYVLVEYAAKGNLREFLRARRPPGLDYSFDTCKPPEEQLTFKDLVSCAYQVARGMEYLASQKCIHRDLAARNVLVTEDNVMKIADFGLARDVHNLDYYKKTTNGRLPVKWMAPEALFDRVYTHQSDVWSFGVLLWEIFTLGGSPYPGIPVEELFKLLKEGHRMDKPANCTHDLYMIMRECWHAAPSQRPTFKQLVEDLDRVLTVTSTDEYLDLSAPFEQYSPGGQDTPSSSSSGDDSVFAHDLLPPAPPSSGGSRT
Chain of FGFR1 (P11362 22-822): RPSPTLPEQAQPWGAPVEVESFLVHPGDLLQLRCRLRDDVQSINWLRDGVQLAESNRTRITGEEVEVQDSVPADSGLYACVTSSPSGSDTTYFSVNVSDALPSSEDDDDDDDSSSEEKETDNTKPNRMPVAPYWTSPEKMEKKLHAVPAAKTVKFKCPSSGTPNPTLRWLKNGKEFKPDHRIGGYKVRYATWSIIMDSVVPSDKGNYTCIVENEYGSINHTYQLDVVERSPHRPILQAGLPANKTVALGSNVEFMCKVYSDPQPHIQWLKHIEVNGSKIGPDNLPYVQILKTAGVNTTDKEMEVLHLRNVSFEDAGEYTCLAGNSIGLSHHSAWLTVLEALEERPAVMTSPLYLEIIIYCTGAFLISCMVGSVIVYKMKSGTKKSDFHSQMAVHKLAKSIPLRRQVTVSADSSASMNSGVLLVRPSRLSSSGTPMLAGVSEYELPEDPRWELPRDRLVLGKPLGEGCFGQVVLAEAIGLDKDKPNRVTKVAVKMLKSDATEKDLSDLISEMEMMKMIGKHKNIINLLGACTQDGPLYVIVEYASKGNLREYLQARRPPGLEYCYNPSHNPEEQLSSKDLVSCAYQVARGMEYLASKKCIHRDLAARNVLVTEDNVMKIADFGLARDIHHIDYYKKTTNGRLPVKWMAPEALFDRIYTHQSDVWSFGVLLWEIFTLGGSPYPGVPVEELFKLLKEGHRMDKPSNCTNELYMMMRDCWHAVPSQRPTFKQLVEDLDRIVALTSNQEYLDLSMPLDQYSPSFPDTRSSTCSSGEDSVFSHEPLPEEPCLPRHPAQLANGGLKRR
Chain of FGFR2 (P21802 22-821): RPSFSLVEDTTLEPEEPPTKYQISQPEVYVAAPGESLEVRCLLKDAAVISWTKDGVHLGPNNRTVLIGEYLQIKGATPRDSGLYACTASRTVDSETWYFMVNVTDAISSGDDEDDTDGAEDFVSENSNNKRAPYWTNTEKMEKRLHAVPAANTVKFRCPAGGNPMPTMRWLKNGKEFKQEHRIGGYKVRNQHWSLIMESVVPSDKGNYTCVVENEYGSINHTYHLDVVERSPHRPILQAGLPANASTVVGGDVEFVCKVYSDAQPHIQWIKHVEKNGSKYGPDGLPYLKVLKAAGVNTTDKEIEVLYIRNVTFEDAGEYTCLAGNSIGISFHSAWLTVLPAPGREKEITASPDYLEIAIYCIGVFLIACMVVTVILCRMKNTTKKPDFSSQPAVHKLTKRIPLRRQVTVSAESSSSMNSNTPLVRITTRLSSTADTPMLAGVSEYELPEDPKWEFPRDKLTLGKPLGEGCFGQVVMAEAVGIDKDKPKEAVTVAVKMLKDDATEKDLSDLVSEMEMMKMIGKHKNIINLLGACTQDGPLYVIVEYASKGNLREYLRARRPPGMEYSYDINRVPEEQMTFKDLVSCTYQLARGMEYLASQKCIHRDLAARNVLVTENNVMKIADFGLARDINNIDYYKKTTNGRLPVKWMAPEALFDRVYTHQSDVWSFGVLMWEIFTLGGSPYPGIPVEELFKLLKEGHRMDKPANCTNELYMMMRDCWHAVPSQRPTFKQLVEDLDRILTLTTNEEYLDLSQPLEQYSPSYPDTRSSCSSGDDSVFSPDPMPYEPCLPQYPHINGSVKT

As to `COc1cc(CCc2cnc3[nH]c(-c4ccc(N5CCN(C)CC5)cc4)c(C#N)c3n2)cc(OC)c1` [Example 45, 2-[2-(3,5-dimethoxyphenyl)ethyl]-6-[4-(4-methylpiperazin-1-yl)phenyl]-5H-pyrrolo[2,3-b]pyrazine-7-carbonitrile], the IC50 in assay [1], in assay [2] and in assay [3] (class symbols) was less than 100 nM each time.
As for `COc1cc(CCc2cnc3[nH]c(-c4ccc(N5CCN(C)CC5)cc4)c(Br)c3n2)cc(OC)c1` [Example 46, 7-bromo-2-[2-(3,5-dimethoxyphenyl)ethyl]-6-[4-(4-methylpiperazin-1-yl)phenyl]-5H-pyrrolo[2,3-b]pyrazine], the IC50 in assay [1], in assay [2] and in assay [3] (class symbols) was less than 100 nM each time.
Take `COc1cc(CCc2cnc3[nH]c(-c4ccc(N5CCN(C)CC5)cc4)c(Cl)c3n2)cc(OC)c1` [Example 47, 7-chloro-2-[2-(3,5-dimethoxyphenyl)ethyl]-6-[4-(4-methylpiperazin-1-yl)phenyl]-5H-pyrrolo[2,3-b]pyrazine]: the half-inhibitory concentration (IC50) in assay [1], in assay [2] and in assay [3] (class symbols) was less than 100 nM throughout.
With `COc1cc(CCc2cnc3[nH]c(-c4ccc(N5CCN(C)CC5)cc4)cc3n2)c(Cl)c(OC)c1` [Example 48, 2-[2-(2-chloro-3,5-dimethoxyphenyl)ethyl]-6-[4-(4-methylpiperazin-1-yl)phenyl]-5H-pyrrolo[2,3-b]pyrazine], the IC50 in assay [1], in assay [2] and in assay [3] (class symbols) was less than 100 nM in each case.
Regarding `COc1cc(OC)c(Cl)c(CCc2cnc3[nH]c(-c4ccc(N5CCN(C)CC5)cc4)cc3n2)c1Cl` [Example 49, 2-[2-(2,6-dichloro-3,5-dimethoxyphenyl)ethyl]-6-[4-(4-methylpiperazin-1-yl)phenyl]-5H-pyrrolo[2,3-b]pyrazine], the IC50 in assay [1], in assay [2] and in assay [3] (class symbols) was less than 100 nM throughout.
In the case of `COc1cc(CCc2cnc3[nH]c(-c4ccc(N5CCN(C)CC5)cc4)c(C)c3n2)cc(OC)c1` [Example 51, 2-[2-(3,5-dimethoxyphenyl)ethyl]-7-methyl-6-[4-(4-methylpiperazin-1-yl)phenyl]-5H-pyrrolo[2,3-b]pyrazine], the IC50 in assay [1], in assay [2] and in assay [3] (class symbols) was less than 100 nM throughout.
On to `CCc1c(-c2ccc(N3CCN(C)CC3)cc2)[nH]c2ncc(CCc3cc(OC)cc(OC)c3)nc12` [Example 52, 2-[2-(3,5-dimethoxyphenyl)ethyl]-7-ethyl-6-[4-(4-methylpiperazin-1-yl)phenyl]-5H-pyrrolo[2,3-b]pyrazine], for which the IC50 in assay [1], in assay [2] and in assay [3] (class symbols) was less than 100 nM throughout.
Regarding `COc1cc(CCc2cnc3[nH]c(-c4ccc(C(=O)NC(C)C)c(Cl)c4)cc3n2)cc(OC)c1` [Example 53, 2-Chloro-4-(2-(3,5-dimethoxyphenethyl)-5H-pyrrolo[2,3-b]pyrazin-6-yl)-N-isopropylbenzamide], the 50% inhibitory concentration (IC50) in assay [1], in assay [2] and in assay [3] (class symbols) was less than 100 nM throughout.
For the molecule `COc1cc(CCc2cnc3[nH]c(-c4ccc(C(=O)N(C)C)c(Cl)c4)cc3n2)cc(OC)c1` [Example 56, 2-Chloro-4-(2-(3,5-dimethoxyphenethyl)-5H-pyrrolo[2,3-b]pyrazin-6-yl)-N,N-dimethylbenzamide], the IC50 in assay [1], in assay [2] and in assay [3] (class symbols) was less than 100 nM each time.
In the case of `CNC(=O)c1ccc(-c2cc3nc(CCc4cc(OC)cc(OC)c4)cnc3[nH]2)cc1F` [Example 57, 4-(2-(3,5-Dimethoxyphenethyl)-5H-pyrrolo[2,3-b]pyrazin-6-yl)-2-fluoro-N-methylbenzamide], the concentration for half-maximal inhibition (IC50) in assay [1], in assay [2] and in assay [3] (class symbols) was less than 100 nM each time.
For the molecule `COc1cc(CCc2cnc3[nH]c(-c4ccc5c(cnn5C)c4)cc3n2)cc(OC)c1` [Example 62, 2-(3,5-Dimethoxyphenethyl)-6-(1-methyl-1H-indazol-5-yl)-5H-pyrrolo[2,3-b]pyrazine], the half-maximal inhibitory concentration (IC50) in assay [1], in assay [2] and in assay [3] (class symbols) was less than 100 nM throughout.
Turning to `COc1cc(CCc2cnc3[nH]c(-c4ccnc(N5CCNCC5)c4)cc3n2)cc(OC)c1` [Example 64, 2-(3,5-Dimethoxyphenethyl)-6-(2-(piperazin-1-yl)pyridin-4-yl)-5H-pyrrolo[2,3-b]pyrazine], the IC50 in assay [1], in assay [2] and in assay [3] (class symbols) was less than 100 nM in each case.
As to `COc1cc(CCc2cnc3[nH]c(-c4cnc5nccnc5c4)cc3n2)cc(OC)c1` [Example 66, 7-(2-(3,5-Dimethoxyphenethyl)-5H-pyrrolo[2,3-b]pyrazin-6-yl)pyrido[2,3-b]pyrazine], the IC50 – broadly, the midpoint of a concentration-inhibition curve – was less than 100 nM in assay [1], less than 100 nM in assay [2] and greater than 2000 nM in assay [3] (numeric bounds).
On to `COc1cc(CCc2cnc3[nH]c(-c4ccc(N5CCN(CCO)CC5)cc4)cc3n2)cc(OC)c1` [Example 71, 2-(4-(4-(2-(3,5-Dimethoxyphenethyl)-5H-pyrrolo[2,3-b]pyrazin-6-yl)phenyl)piperazin-1-yl)ethanol], for which the half-inhibitory concentration (IC50) in assay [1], in assay [2] and in assay [3] (class symbols) was less than 100 nM in each case.
In the case of `CNC(=O)c1cc(-c2cc3nc(CCc4cc(OC)cc(OC)c4)cnc3[nH]2)ccn1` [Example 73, 4-(2-(3,5-Dimethoxyphenethyl)-5H-pyrrolo[2,3-b]pyrazin-6-yl)-N-methylpicolinamide], the IC50 in assay [1], in assay [2] and in assay [3] (class symbols) was less than 100 nM each time.
For `COc1cc(CCc2cnc3[nH]c(-c4ccc(N5CCN(C)CC5=O)cc4)cc3n2)cc(OC)c1` [Example 76, 1-(4-(2-(3,5-Dimethoxyphenethyl)-5H-pyrrolo[2,3-b]pyrazin-6-yl)phenyl)-4-methylpiperazin-2-one], the IC50 in assay [1], in assay [2] and in assay [3] (class symbols) was less than 100 nM each time.
As for `COc1cc(CCc2cnc3[nH]c(-c4ccc(N5CCC(O)CC5)cc4)cc3n2)cc(OC)c1` [Example 77, 1-(4-(2-(3,5-Dimethoxyphenethyl)-5H-pyrrolo[2,3-b]pyrazin-6-yl)phenyl)piperidin-4-ol], the IC50 in assay [1], in assay [2] and in assay [3] (class symbols) was less than 100 nM each time.
With `COc1cc(CCc2cnc3[nH]c(-c4cccc(N5CCNCC5)c4)cc3n2)cc(OC)c1` [Example 78, 2-(3,5-Dimethoxyphenethyl)-6-(3-(piperazin-1-yl)phenyl)-5H-pyrrolo[2,3-b]pyrazine], the half-inhibitory concentration (IC50) in assay [1], in assay [2] and in assay [3] (class symbols) was less than 100 nM throughout.
As for `COc1cc(CCc2cnc3[nH]c(-c4cccc(N5CCN(C)CC5)c4)cc3n2)cc(OC)c1` [Example 79, 2-(3,5-Dimethoxyphenethyl)-6-(3-(4-methylpiperazin-1-yl)phenyl)-5H-pyrrolo[2,3-b]pyrazine], the IC50 in assay [1], in assay [2] and in assay [3] (class symbols) was less than 100 nM each time.
`COc1cc(CCc2cnc3[nH]c(-c4ccc5c(c4)CC(=O)N5)cc3n2)cc(OC)c1` [Example 80, 5-(2-(3,5-Dimethoxyphenethyl)-5H-pyrrolo[2,3-b]pyrazin-6-yl)indolin-2-one]: the IC50 in assay [1], in assay [2] and in assay [3] (class symbols) was less than 100 nM throughout.

For the origin of these results see patent publication US9745311B2, “Substituted pyrrolo[2,3-b]pyrazines as FGFR inhibitors” (Incyte Corporation, priority 2012, dated 2017).
